Measurements: US20100087768A1, “TRANSDERMAL DRUG DELIVERY SYSTEM FOR LIQUID ACTIVE INGREDIENT” (priority 2008, published 2010)
“And” between values parts separate entries of the source, which are not always exact repeats. Equal values may be shown once. Read-outs that look alike come from different tables or passages of the source.

Legend:
[1] = Shear adhesion / holding power (PSTC-7) of plain adhesives and transdermal devices; type: physicochemical
Protocol: Holding power (shear adhesion): The ability of a tape to resist the static forces applied in the same plane as the backing. Usually expressed in a time required for a given weight per unit area to cause a given amount of tape to come loose from a vertical panel.
Throughout this specification, including the claims, the adhesive properties of shear adhesion and peel adhesion are measured employing the test methods adopted by the PSTC (Pressure Sensitive Tape Council) for Peel Adhesion (PSTC-1 Peel Adhesion of Single Coated Pressure Sensitive Tapes at 180° Angle) and Shear Adhesion (PSTC-7 Holding Power of Pressure Sensitive Tapes). The unit for peel adhesion is newtons/inch, and the unit for holding power (shear adhesion) is minutes. The test of holding power is performed under a load of 4 lbs/in^2 (28 kPa) and at 72° F. (22° C.).
Adhesive properties were measured as described above. The plain adhesive values given are those of the dry adhesive polymer composition without added components.

[2] = General appearance of patches with non-volatile coadjuvants (visual and tactile inspection); type: physicochemical; details: selegiline patches in DT 87-2353
[3] = Loss of selegiline during manufacture (after drying), HPLC; type: physicochemical; details: up to 15%
Protocol: Lots with DT 87-2353 as adhesive, selegiline and increasing amounts of squalene (SQ) and triethylcitrate (TEC) were manufactured as described in “Description of the manufacturing process” above and the amount of selegiline present after drying was measured.
Selegiline content was analysed by HPLC using a suitable technique

shaved skin = experiment: Evaluation of dermal irritation in rabbits (Example 3); type: in vivo, rabbits (New Zealand Albino); parameters: key to Score for Skin Erythema 1 h / Score for Skin Erythema 2 h / Score for Skin Erythema 4 h / Score for Skin Erythema 6 h / Score for Skin Erythema 8 h / Score for Skin Erythema 24 h: 0: No redness (erythema).; 1: Barely perceptible redness.; 2: Well defined redness.; 3: Severe Erythema (beet redness) to slight eschar formation (injuries in depth)
Protocol: Dermal irritation was tested using transdermal delivery devices manufactured as described in “Description of the manufacturing process” above with acrylic adhesives with different functionality and 15% of selegiline, all of them with shear value of more than 1.5 hours and less than 15 hours for the plain adhesive and without crosslinker agents (see Table 3). Each formulation was tested on 6 rabbits, with evaluations at 1, 2, 4, 6, 8 and 24 hrs. The degree of adhesion and glue residue was also evaluated with skin reactions on an open-label 1-day-study. Rabbits belonging to the New Zealand Albino strain were used as animal model. According protocol, and after 14 days of acclimatization, the fur of back of 6 male rabbits was thoroughly shaved. Twenty four hours later one patch of each formulation of 10.6 cm^2 was glued in each rabbit to the shaved skin, according to a randomized schedule.
Pure selegiline (25 μl) was used as control covered by Transpore tape (from 3M).
The irritation observed was classified according to the following scoring system: • Scale used for scoring erythema: • 0: No redness (erythema). • 1: Barely perceptible redness. • 2: Well defined redness. • 3: Severe Erythema (beet redness) to slight eschar formation (injuries in depth).
Reactions were scored as if they were covering the entire skin area treated (maximum score).
The Dermal Irritation Index (DII) was calculated as the average of the individual data at each evaluation time.
The dermal irritation indexes obtained were interpreted following ISO/WD 10993-10: […]

[4] = 1% selegiline in the coadjuvant, seven days at 40° C.
[5] = 1% selegiline in the coadjuvant, seven days at 40° C., control pure selegiline

CCN(C)C(=O)Oc1cccc([C@H](C)N(C)C)c1 [Rivastigmine, rivastigmine]
Effect of the drug on cohesiveness of the adhesives (measured by the shear test) [1]: reduces the cohesiveness in all the adhesives

CC(C)=CCC/C(C)=C/CC/C(C)=C/CC/C=C(\C)CC/C=C(\C)CCC=C(C)C [squalene]
Impurity rrt: 2.04 [4]: 0.07%
Selegiline base (chromatographic purity) [5]: 99.89%
Amount up to which the coadjuvant is suitable [2]: up to 15%
Effect of coadjuvant on selegiline loss during drying, in words [3]: diminishes the amount of active drug loss during drying in a concentration dependent manner

C#CCN(C)[C@H](C)Cc1ccccc1 [pure selegiline, selegiline]
Impurity (any secondary peak): ≦0.05%
Selegiline base (chromatographic purity): 99.98%
Score for Skin Erythema 1 h (shaved skin; individual rabbits 1-6, 10.6 cm^2 patch, 1 h): 0
Score for Skin Erythema 2 h (shaved skin; individual rabbits 1-6, 2 h): 0 (5×) and 1
Score for Skin Erythema 4 h (shaved skin; individual rabbits 1-6, 4 h): 0 (5×) and 1
Score for Skin Erythema 6 h (shaved skin; individual rabbits 1-6, 6 h): 0 (3×) and 1 (3×)
Score for Skin Erythema 8 h (shaved skin; individual rabbits 1-6, 8 h): 1
Score for Skin Erythema 24 h (shaved skin; individual rabbits 1-6, 24 h): 1 (5×) and 0
DII (Dermal Irritation Index) (shaved skin; individual rabbits 1-6, average over evaluation times): 0.3 (4×) and 0.5 and 0.8
Erythema Score 1 h (shaved skin; mean of 6 rabbits, 1 h): 0.0
Erythema Score 2 h (shaved skin; mean of 6 rabbits, 2 h): 0.2
Erythema Score 4 h (shaved skin; mean of 6 rabbits, 4 h): 0.2
Erythema Score 6 h (shaved skin; mean of 6 rabbits, 6 h): 0.5
Erythema Score 8 h (shaved skin; mean of 6 rabbits, 8 h): 1.0
Erythema Score 24 h (shaved skin; mean of 6 rabbits, 24 h): 0.8
DII (Dermal Irritation Index), Erythema Score line (shaved skin; overall, 6 rabbits, all times): 0.4
Effect of the drug on cohesiveness of the adhesives (measured by the shear test) [1]: reduces the cohesiveness in all the adhesives

CCOC(=O)CC(O)(CC(=O)OCC)C(=O)OCC [TEC, triethylcitrate]
Impurity rrt: 1.56 [4]: 0.42%
Impurity rrt: 2.09 [4]: 0.98%
Selegiline base (chromatographic purity) [5]: 98.58%
Amount up to which the coadjuvant is suitable [2]: up to 15%
Effect of coadjuvant on selegiline loss during drying, in words [3]: diminishes the amount of active drug loss during drying in a concentration dependent manner
